Results reported in the kinase profiling compilation of Christmann-Franck et al. (2016).

Legend:
Experiment in all cases: KINOMEscan competition binding
Conditions in all cases: compound 10.0 µM
[1] = target: ACVR1B (human) (UniProt P36896)
[2] = target: BMPR1A (human) (UniProt P36894)
[3] = target: BMPR1B (human) (UniProt O00238)
[4] = target: BRSK1 (human) (UniProt Q8TDC3)
[5] = target: CAMK4 (human) (UniProt Q16566)
[6] = target: CAMKK1 (human) (UniProt Q8N5S9)
[7] = target: CLK4 (human) (UniProt Q9HAZ1)
[8] = target: DAPK3 (human) (UniProt O43293)
[9] = target: DDR2 (human) (UniProt Q16832)
[10] = target: EPHA2 (human) (UniProt P29317)
[11] = target: FER (human) (UniProt P16591)
[12] = target: FES (human) (UniProt P07332)
[13] = target: FGFR2 (human) (UniProt P21802)
[14] = target: FLT4 (human) (UniProt P35916)
[15] = target: IGF1R (human) (UniProt P08069)
Chain of IGF1R (human) (P08069 whole entry, looked up): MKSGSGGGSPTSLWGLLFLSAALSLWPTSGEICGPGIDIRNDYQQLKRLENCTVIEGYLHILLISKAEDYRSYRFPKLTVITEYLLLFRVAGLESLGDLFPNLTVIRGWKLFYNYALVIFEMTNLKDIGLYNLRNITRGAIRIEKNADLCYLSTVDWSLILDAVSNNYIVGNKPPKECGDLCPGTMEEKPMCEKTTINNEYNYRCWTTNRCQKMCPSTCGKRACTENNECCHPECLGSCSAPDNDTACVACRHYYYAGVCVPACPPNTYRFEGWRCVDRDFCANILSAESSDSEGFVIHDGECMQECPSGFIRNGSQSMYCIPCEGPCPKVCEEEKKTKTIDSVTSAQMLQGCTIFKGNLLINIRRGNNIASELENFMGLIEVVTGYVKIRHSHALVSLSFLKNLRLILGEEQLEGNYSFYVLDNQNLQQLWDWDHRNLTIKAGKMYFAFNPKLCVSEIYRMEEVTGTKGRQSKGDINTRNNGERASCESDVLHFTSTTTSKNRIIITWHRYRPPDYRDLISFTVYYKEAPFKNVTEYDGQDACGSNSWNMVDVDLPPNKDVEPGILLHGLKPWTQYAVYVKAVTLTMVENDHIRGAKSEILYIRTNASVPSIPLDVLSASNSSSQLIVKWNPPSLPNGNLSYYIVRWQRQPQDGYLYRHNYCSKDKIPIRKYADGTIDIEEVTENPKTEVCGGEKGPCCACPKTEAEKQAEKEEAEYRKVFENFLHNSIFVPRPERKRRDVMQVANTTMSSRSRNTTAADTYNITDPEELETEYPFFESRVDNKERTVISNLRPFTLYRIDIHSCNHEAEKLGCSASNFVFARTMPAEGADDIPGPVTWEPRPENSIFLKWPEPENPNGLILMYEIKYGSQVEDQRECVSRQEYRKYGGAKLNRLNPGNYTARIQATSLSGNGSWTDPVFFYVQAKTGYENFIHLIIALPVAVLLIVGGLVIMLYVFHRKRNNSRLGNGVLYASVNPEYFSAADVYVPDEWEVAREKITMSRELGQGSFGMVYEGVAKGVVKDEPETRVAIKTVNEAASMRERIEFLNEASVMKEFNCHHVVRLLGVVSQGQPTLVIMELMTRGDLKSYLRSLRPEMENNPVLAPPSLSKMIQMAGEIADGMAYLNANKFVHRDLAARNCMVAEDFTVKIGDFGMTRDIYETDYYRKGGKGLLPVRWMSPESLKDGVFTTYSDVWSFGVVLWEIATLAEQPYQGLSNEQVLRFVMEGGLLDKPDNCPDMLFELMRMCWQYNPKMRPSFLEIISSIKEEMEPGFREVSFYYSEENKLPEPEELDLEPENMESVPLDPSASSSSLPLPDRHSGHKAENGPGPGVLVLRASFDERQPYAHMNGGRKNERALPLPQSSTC

[16] = target: MAK (human) (UniProt P20794)
[17] = target: MAP2K3 (human) (UniProt P46734)
Chain of MAP2K3 (human) (P46734 whole entry, looked up): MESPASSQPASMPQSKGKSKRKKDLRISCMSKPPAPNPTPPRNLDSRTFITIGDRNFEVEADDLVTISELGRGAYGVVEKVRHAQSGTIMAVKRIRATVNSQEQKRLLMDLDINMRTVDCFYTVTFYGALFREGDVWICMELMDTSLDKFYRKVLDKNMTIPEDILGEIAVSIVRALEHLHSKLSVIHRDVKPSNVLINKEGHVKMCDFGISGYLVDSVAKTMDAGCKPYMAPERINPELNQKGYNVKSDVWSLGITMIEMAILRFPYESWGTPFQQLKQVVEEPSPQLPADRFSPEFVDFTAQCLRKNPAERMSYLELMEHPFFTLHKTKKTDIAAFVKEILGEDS

[18] = target: MAP2K5 (human) (UniProt Q13163)
[19] = target: MAP4K4 (human) (UniProt O95819)
[20] = target: MAPK14 (human) (UniProt Q16539)
[21] = target: MAPK7 (human) (UniProt Q13164)
[22] = target: MET (human) (UniProt P08581)
[23] = target: NEK2 (human) (UniProt P51955)
[24] = target: NLK (human) (UniProt Q9UBE8)
[25] = target: NUAK2 (human) (UniProt Q9H093)
[26] = target: PAK6 (human) (UniProt Q9NQU5)
[27] = target: PDGFRA (human) (UniProt P16234)
[28] = target: PHKG1 (human) (UniProt Q16816)
Chain of PHKG1 (human) (Q16816 whole entry, looked up): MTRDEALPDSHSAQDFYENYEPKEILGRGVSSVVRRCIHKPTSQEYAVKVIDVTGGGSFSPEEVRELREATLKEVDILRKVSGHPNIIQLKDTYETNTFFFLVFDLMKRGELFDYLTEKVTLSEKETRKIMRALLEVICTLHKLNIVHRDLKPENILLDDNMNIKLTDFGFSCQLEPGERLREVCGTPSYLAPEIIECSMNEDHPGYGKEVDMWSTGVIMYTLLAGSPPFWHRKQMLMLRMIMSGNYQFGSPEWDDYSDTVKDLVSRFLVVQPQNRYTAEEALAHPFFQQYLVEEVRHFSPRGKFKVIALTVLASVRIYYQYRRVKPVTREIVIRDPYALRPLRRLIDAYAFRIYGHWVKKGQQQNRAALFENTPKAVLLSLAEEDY

[29] = target: PIK3C2G (human) (UniProt O75747)
[30] = target: PIM2 (human) (UniProt Q9P1W9)
Chain of PIM2 (human) (Q9P1W9 whole entry, looked up): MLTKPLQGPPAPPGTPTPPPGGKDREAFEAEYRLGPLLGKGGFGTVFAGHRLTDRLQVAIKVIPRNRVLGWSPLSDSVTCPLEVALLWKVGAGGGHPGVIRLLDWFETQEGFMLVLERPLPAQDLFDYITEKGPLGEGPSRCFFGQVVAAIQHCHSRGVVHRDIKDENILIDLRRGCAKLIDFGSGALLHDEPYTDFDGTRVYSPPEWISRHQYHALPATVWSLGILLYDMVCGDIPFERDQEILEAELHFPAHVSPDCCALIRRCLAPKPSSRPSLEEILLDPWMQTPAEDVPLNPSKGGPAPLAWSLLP

[31] = target: PKN2 (human) (UniProt Q16513)
Chain of PKN2 (human) (Q16513 whole entry, looked up): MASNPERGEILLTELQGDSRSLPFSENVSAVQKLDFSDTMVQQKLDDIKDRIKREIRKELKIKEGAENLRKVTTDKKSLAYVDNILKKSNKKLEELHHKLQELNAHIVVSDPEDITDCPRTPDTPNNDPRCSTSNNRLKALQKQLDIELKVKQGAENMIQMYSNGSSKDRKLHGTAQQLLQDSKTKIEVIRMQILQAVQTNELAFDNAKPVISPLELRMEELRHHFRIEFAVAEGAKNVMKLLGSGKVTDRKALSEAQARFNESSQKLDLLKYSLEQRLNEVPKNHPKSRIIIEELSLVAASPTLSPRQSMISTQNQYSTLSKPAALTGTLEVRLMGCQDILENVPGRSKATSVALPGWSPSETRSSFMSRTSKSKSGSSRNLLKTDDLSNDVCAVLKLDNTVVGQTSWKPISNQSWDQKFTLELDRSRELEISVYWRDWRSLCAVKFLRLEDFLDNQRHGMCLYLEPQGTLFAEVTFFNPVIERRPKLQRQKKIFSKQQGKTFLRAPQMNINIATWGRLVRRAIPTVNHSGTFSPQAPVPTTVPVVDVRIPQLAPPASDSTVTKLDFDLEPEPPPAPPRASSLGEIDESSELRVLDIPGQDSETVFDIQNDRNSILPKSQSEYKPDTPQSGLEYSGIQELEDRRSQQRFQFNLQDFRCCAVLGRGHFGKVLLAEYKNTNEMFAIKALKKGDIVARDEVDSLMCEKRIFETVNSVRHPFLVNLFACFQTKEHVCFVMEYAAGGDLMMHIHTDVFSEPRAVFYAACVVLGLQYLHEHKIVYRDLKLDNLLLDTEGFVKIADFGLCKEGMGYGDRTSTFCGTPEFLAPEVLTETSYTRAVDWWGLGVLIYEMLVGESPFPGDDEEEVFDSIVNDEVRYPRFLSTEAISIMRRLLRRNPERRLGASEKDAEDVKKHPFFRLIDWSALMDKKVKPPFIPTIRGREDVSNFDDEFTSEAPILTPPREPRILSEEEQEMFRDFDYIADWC

[32] = target: PKN3 (M.tuberculosis) (UniProt Q6P5Z2)
[33] = target: RET (human) (UniProt P07949)
[34] = target: RIOK1 (human) (UniProt Q9BRS2)
[35] = target: RPS6KA1 KD1 (human) (UniProt Q15418)
[36] = target: RPS6KA6 KD1 (human) (UniProt Q9UK32)
[37] = target: STK10 (human) (UniProt O94804)
[38] = target: TAOK3 (human) (UniProt Q9H2K8)
Chain of TAOK3 (human) (Q9H2K8 whole entry, looked up): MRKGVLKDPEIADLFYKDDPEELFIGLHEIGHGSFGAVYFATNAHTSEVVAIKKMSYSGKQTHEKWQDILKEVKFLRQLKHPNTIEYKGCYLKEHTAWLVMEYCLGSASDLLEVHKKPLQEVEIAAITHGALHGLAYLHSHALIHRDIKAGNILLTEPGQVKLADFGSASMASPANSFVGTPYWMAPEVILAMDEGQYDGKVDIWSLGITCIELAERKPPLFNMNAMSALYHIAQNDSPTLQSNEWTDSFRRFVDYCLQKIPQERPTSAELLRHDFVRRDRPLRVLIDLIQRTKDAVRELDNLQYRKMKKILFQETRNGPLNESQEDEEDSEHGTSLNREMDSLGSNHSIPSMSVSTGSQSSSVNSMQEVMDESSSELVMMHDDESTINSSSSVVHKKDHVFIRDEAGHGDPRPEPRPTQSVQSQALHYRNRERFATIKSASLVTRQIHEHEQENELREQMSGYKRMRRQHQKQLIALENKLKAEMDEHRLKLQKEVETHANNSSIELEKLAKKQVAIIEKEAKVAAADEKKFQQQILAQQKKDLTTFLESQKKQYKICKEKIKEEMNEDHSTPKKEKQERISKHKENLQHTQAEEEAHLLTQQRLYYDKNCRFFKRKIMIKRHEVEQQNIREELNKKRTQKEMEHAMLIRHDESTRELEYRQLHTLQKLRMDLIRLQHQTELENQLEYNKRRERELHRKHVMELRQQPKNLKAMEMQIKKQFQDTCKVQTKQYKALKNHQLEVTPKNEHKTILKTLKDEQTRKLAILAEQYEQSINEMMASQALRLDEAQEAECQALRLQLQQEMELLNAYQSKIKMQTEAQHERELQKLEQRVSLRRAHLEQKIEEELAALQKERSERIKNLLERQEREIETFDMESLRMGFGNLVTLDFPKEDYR

[39] = target: TGFBR1 (human) (UniProt P36897)
[40] = target: ULK1 (human) (UniProt O75385)

Chain of BRSK1 (human) (Q8TDC3 whole entry, looked up): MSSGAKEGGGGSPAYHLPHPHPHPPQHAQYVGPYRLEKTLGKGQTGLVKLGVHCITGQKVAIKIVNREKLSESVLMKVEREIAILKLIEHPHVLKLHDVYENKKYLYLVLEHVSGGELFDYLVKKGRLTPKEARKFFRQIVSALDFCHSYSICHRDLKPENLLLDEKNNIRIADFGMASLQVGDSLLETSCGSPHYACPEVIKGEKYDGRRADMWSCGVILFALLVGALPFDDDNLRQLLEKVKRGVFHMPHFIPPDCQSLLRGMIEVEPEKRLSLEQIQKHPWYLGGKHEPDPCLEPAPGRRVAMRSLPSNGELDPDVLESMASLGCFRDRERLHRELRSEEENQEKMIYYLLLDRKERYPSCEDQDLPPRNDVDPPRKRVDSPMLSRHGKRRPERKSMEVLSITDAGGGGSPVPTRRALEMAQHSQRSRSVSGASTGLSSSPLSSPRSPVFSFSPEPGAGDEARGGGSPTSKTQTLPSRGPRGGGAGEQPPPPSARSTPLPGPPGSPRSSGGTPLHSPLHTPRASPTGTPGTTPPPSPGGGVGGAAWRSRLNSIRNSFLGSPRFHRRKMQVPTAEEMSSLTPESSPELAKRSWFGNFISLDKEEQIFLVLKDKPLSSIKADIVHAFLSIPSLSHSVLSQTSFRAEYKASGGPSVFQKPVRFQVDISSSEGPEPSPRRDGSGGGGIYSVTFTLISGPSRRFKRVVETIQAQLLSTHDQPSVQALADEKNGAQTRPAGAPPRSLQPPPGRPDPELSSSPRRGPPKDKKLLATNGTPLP

C=CC(=O)Nc1cc(-n2c(=O)ccc3cnc4ccc(-c5cn[nH]c5)cc4c32)ccc1C
kinase still bound, per cent of control [1]: 100% | kinase still bound, per cent of control [2]: 12% | kinase still bound, per cent of control [3]: 73% | kinase still bound, per cent of control [4]: 82% | kinase still bound, per cent of control [5]: 100% | kinase still bound, per cent of control [6]: 59% | kinase still bound, per cent of control [7]: 3% | kinase still bound, per cent of control [8]: 61% | kinase still bound, per cent of control [9]: 75% | kinase still bound, per cent of control [10]: 85% | kinase still bound, per cent of control [11]: 100% | kinase still bound, per cent of control [12]: 100% | kinase still bound, per cent of control [13]: 94% | kinase still bound, per cent of control [14]: 65% | kinase still bound, per cent of control [15]: 100% | kinase still bound, per cent of control [16]: 94% | kinase still bound, per cent of control [17]: 8.6% | kinase still bound, per cent of control [18]: 0.3% | kinase still bound, per cent of control [19]: 60% | kinase still bound, per cent of control [20]: 97% | kinase still bound, per cent of control [21]: 98% | kinase still bound, per cent of control [22]: 89% | kinase still bound, per cent of control [23]: 100% | kinase still bound, per cent of control [24]: 63% | kinase still bound, per cent of control [25]: 46% | kinase still bound, per cent of control [26]: 96% | kinase still bound, per cent of control [27]: 21% | kinase still bound, per cent of control [28]: 58% | kinase still bound, per cent of control [29]: 5.9% | kinase still bound, per cent of control [30]: 69% | kinase still bound, per cent of control [31]: 82% | kinase still bound, per cent of control [32]: 12% | kinase still bound, per cent of control [33]: 55% | kinase still bound, per cent of control [34]: 53% | kinase still bound, per cent of control [35]: 87% | kinase still bound, per cent of control [36]: 74% | kinase still bound, per cent of control [37]: 94% | kinase still bound, per cent of control [38]: 47% | kinase still bound, per cent of control [39]: 83% | kinase still bound, per cent of control [40]: 87%

C[C@@H](Oc1cc(-c2cnn(C3CCNCC3)c2)cnc1N)c1c(Cl)ccc(F)c1Cl
kinase still bound, per cent of control [1]: 9% | kinase still bound, per cent of control [2]: 0.15% | kinase still bound, per cent of control [3]: 61% | kinase still bound, per cent of control [4]: 48% | kinase still bound, per cent of control [5]: 100% | kinase still bound, per cent of control [6]: 60% | kinase still bound, per cent of control [7]: 100% | kinase still bound, per cent of control [8]: 94% | kinase still bound, per cent of control [9]: 0% | kinase still bound, per cent of control [10]: 1.5% | kinase still bound, per cent of control [11]: 2% | kinase still bound, per cent of control [13]: 35% | kinase still bound, per cent of control [14]: 100% | kinase still bound, per cent of control [15]: 0.9% | kinase still bound, per cent of control [16]: 63% | kinase still bound, per cent of control [17]: 42% | kinase still bound, per cent of control [18]: 54% | kinase still bound, per cent of control [20]: 100% | kinase still bound, per cent of control [21]: 0.1% | kinase still bound, per cent of control [23]: 81% | kinase still bound, per cent of control [24]: 93% | kinase still bound, per cent of control [25]: 5.5% | kinase still bound, per cent of control [26]: 72% | kinase still bound, per cent of control [27]: 92% | kinase still bound, per cent of control [28]: 100% | kinase still bound, per cent of control [29]: 22% | kinase still bound, per cent of control [30]: 100% | kinase still bound, per cent of control [31]: 26% | kinase still bound, per cent of control [32]: 30% | kinase still bound, per cent of control [34]: 3.4% | kinase still bound, per cent of control [36]: 46% | kinase still bound, per cent of control [37]: 0% | kinase still bound, per cent of control [38]: 1.4% | kinase still bound, per cent of control [39]: 4% | kinase still bound, per cent of control [40]: 1%

NC(=O)Nc1cc(-c2cccc(F)c2)sc1C(=O)N[C@@H]1CCCNC1
kinase still bound, per cent of control [1]: 28% | kinase still bound, per cent of control [2]: 0.4% | kinase still bound, per cent of control [3]: 0.1% | kinase still bound, per cent of control [4]: 4.9% | kinase still bound, per cent of control [5]: 0.15% | kinase still bound, per cent of control [6]: 7% | kinase still bound, per cent of control [7]: 2.4% | kinase still bound, per cent of control [8]: 2.9% | kinase still bound, per cent of control [9]: 0% | kinase still bound, per cent of control [10]: 7.4% | kinase still bound, per cent of control [12]: 0.65% | kinase still bound, per cent of control [13]: 11% | kinase still bound, per cent of control [14]: 0% | kinase still bound, per cent of control [15]: 44% | kinase still bound, per cent of control [16]: 100% | kinase still bound, per cent of control [17]: 10% | kinase still bound, per cent of control [18]: 0.05% | kinase still bound, per cent of control [19]: 0.5% | kinase still bound, per cent of control [20]: 100% | kinase still bound, per cent of control [21]: 80% | kinase still bound, per cent of control [22]: 3.1% | kinase still bound, per cent of control [23]: 75% | kinase still bound, per cent of control [24]: 81% | kinase still bound, per cent of control [25]: 2.2% | kinase still bound, per cent of control [26]: 0.35% | kinase still bound, per cent of control [28]: 0.1% | kinase still bound, per cent of control [29]: 64% | kinase still bound, per cent of control [30]: 57% | kinase still bound, per cent of control [31]: 38% | kinase still bound, per cent of control [32]: 0% | kinase still bound, per cent of control [33]: 0% | kinase still bound, per cent of control [34]: 0.4% | kinase still bound, per cent of control [35]: 11% | kinase still bound, per cent of control [36]: 0.3% | kinase still bound, per cent of control [37]: 0% | kinase still bound, per cent of control [38]: 2.9% | kinase still bound, per cent of control [39]: 47% | kinase still bound, per cent of control [40]: 0%
